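Briefly, cells in 96-well plates were exposed to five compound concentrations for 48 h, and endpoints were estimated by linear interpolation. Here, GI50 denotes the concentration required for 50% inhibition of growth.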 Active and inactive are the calls of the source. Rule as the data show it: active = GI50 up to about 1.1 µM and inactive = higher.
Legend:
Assay in all cases: NCI-60 cell line screen, 48 h
HCC 2998 = tested on: HCC 2998
SK-MEL-28 = tested on: SK-MEL-28
MCF7 = tested on: MCF7
HT-29 = tested on: HT-29
HCT-15 = tested on: HCT-15
SF-268 = tested on: SF-268
OVCAR-5 = tested on: OVCAR-5
ACHN = tested on: ACHN
Hs-578T = tested on: Hs-578T
NCI-H23 = tested on: NCI-H23
MOLT-4 = tested on: MOLT-4
SF-539 = tested on: SF-539
SN12C = tested on: SN12C
UACC-257 = tested on: UACC-257
A498 = tested on: A498
SR = tested on: SR
NCI-H226 = tested on: NCI-H226
RPMI-8226 = tested on: RPMI-8226
M14 = tested on: M14
CCRF-CEM = tested on: CCRF-CEM

Cc1cccc2c(=O)c3c(O)cc4c(c3n(C)c12)C=CC(C)(C)O4
GI50 (HCC 2998): > 100 µM (inactive) | GI50 (SK-MEL-28): > 100 µM (inactive) | GI50 (MCF7): 32.7 µM (inactive) | GI50 (HT-29): 4.63 µM (inactive) | GI50 (HCT-15): 18.7 µM | GI50 (SF-268): > 100 µM (inactive) | GI50 (OVCAR-5): 59.3 µM (inactive) | GI50 (ACHN): > 100 µM (inactive) | GI50 (Hs-578T): 39.4 µM (inactive) | GI50 (NCI-H23): 33 µM (inactive) | GI50 (MOLT-4): 29.1 µM (inactive) | GI50 (SF-539): 87.5 µM (inactive) | GI50 (SN12C): > 100 µM (inactive) | GI50 (UACC-257): 60.1 µM (inactive) | GI50 (A498): > 100 µM (inactive) | GI50 (SR): 10.4 µM (inactive) | GI50 (NCI-H226): 29.5 µM (inactive) | GI50 (RPMI-8226): 9.02 µM (inactive) | GI50 (M14): 28.3 µM (inactive) | GI50 (CCRF-CEM): 22.5 µM (inactive)

Cc1c(C)n(-c2ccccc2)c2nc([S+](C)[O-])nc([S+](C)[O-])c12 (stereo not given)
GI50 (HCC 2998): 15.2 µM (inactive) | GI50 (SK-MEL-28): 4.15 µM (inactive) | GI50 (MCF7): 2.16 µM (inactive) | GI50 (HT-29): 6.05 µM (inactive) | GI50 (HCT-15): 5 µM | GI50 (SF-268): 7.14 µM (inactive) | GI50 (OVCAR-5): 15.3 µM (inactive) | GI50 (ACHN): 5.83 µM (inactive) | GI50 (Hs-578T): 25.5 µM (inactive) | GI50 (NCI-H23): 13.9 µM (inactive) | GI50 (MOLT-4): 2.33 µM (inactive) | GI50 (SF-539): 3.85 µM (inactive) | GI50 (SN12C): 8.28 µM (inactive) | GI50 (UACC-257): 11.8 µM (inactive) | GI50 (A498): 13.1 µM (inactive) | GI50 (SR): 0.809 µM (active) | GI50 (NCI-H226): 17.9 µM (inactive) | GI50 (RPMI-8226): 1.66 µM (inactive) | GI50 (M14): 2.21 µM (inactive) | GI50 (CCRF-CEM): 1.55 µM (inactive)

O=c1[nH]c(-c2ccccc2)nc2c1sc1nc3ccccc3n12
GI50 (HCC 2998): > 100 µM (inactive) | GI50 (SK-MEL-28): > 100 µM (inactive) | GI50 (MCF7): > 100 µM (inactive) | GI50 (HT-29): > 100 µM (inactive) | GI50 (HCT-15): > 100 µM | GI50 (SF-268): 78.2 µM (inactive) | GI50 (OVCAR-5): > 100 µM (inactive) | GI50 (ACHN): 61.4 µM (inactive) | GI50 (Hs-578T): 26.7 µM (inactive) | GI50 (NCI-H23): > 100 µM (inactive) | GI50 (MOLT-4): 16.1 µM (inactive) | GI50 (SF-539): > 100 µM (inactive) | GI50 (SN12C): > 100 µM (inactive) | GI50 (UACC-257): > 100 µM (inactive) | GI50 (A498): > 100 µM (inactive) | GI50 (SR): > 100 µM (inactive) | GI50 (NCI-H226): > 100 µM (inactive) | GI50 (RPMI-8226): 1.52 µM (inactive) | GI50 (M14): > 100 µM (inactive) | GI50 (CCRF-CEM): > 100 µM (inactive)

CCOC(=O)c1sc2ncnc(N)c2c1C
GI50 (HCC 2998): 40.1 µM (inactive) | GI50 (SK-MEL-28): 45.3 µM (inactive) | GI50 (MCF7): 51.6 µM (inactive) | GI50 (HT-29): 18.2 µM (inactive) | GI50 (HCT-15): 73.6 µM | GI50 (SF-268): 68.5 µM (inactive) | GI50 (OVCAR-5): 36.3 µM (inactive) | GI50 (ACHN): 65.8 µM (inactive) | GI50 (Hs-578T): 44.1 µM (inactive) | GI50 (NCI-H23): 70.3 µM (inactive) | GI50 (MOLT-4): 65.2 µM (inactive) | GI50 (SF-539): 75.5 µM (inactive) | GI50 (SN12C): 21.4 µM (inactive) | GI50 (UACC-257): 34.4 µM (inactive) | GI50 (A498): 24.4 µM (inactive) | GI50 (SR): 24.8 µM (inactive) | GI50 (NCI-H226): 75.5 µM (inactive) | GI50 (RPMI-8226): 95.5 µM (inactive) | GI50 (M14): 65 µM (inactive) | GI50 (CCRF-CEM): 62.1 µM (inactive)

CNc1ncc(-c2nnnn2-c2ccccc2)c(CN(C)C)n1
GI50 (HCC 2998): > 100 µM (inactive) | GI50 (SK-MEL-28): > 100 µM (inactive) | GI50 (MCF7): > 100 µM (inactive) | GI50 (HT-29): > 100 µM (inactive) | GI50 (HCT-15): > 100 µM | GI50 (SF-268): > 100 µM (inactive) | GI50 (OVCAR-5): > 100 µM (inactive) | GI50 (ACHN): > 100 µM (inactive) | GI50 (Hs-578T): > 100 µM (inactive) | GI50 (NCI-H23): > 100 µM (inactive) | GI50 (MOLT-4): > 100 µM (inactive) | GI50 (SF-539): > 100 µM (inactive) | GI50 (SN12C): > 100 µM (inactive) | GI50 (UACC-257): > 100 µM (inactive) | GI50 (A498): > 100 µM (inactive) | GI50 (SR): > 100 µM (inactive) | GI50 (NCI-H226): > 100 µM (inactive) | GI50 (RPMI-8226): > 100 µM (inactive) | GI50 (M14): > 100 µM (inactive) | GI50 (CCRF-CEM): > 100 µM (inactive)

COc1ccc(-c2cc(-c3ccc(Nc4ccnc5cc(C(F)(F)F)ccc45)cc3)[nH]c(=O)c2C#N)cc1
GI50 (HCC 2998): > 100 µM (inactive) | GI50 (SK-MEL-28): > 72.1 µM (inactive) | GI50 (MCF7): > 88.7 µM (inactive) | GI50 (HT-29): > 33.2 µM (inactive) | GI50 (HCT-15): > 100 µM | GI50 (SF-268): > 41.8 µM (inactive) | GI50 (OVCAR-5): > 66.5 µM (inactive) | GI50 (ACHN): > 42.1 µM (inactive) | GI50 (Hs-578T): 10.1 µM (inactive) | GI50 (NCI-H23): > 38.4 µM (inactive) | GI50 (MOLT-4): > 100 µM (inactive) | GI50 (SF-539): 21 µM (inactive) | GI50 (SN12C): > 100 µM (inactive) | GI50 (UACC-257): > 100 µM (inactive) | GI50 (A498): > 40 µM (inactive) | GI50 (SR): 9.51 µM (inactive) | GI50 (NCI-H226): > 29.3 µM (inactive) | GI50 (RPMI-8226): > 100 µM (inactive) | GI50 (M14): 27.2 µM (inactive) | GI50 (CCRF-CEM): > 24 µM (inactive)

Cc1cc(C)nc(SC(C)C(=O)N/N=C/c2ccc(OCc3ccccc3)cc2)n1 (stereo not given)
GI50 (HCC 2998): 28.1 µM (inactive) | GI50 (SK-MEL-28): 53.2 µM (inactive) | GI50 (MCF7): 21 µM (inactive) | GI50 (HT-29): 14.5 µM (inactive) | GI50 (HCT-15): 26.4 µM | GI50 (SF-268): 40.6 µM (inactive) | GI50 (OVCAR-5): 78.9 µM (inactive) | GI50 (ACHN): 25.2 µM (inactive) | GI50 (Hs-578T): 52 µM (inactive) | GI50 (NCI-H23): 18 µM (inactive) | GI50 (MOLT-4): 17.1 µM (inactive) | GI50 (SF-539): 50.8 µM (inactive) | GI50 (SN12C): 31.3 µM (inactive) | GI50 (UACC-257): 7.41 µM (inactive) | GI50 (A498): 31.8 µM (inactive) | GI50 (SR): 7.89 µM (inactive) | GI50 (NCI-H226): 18.9 µM (inactive) | GI50 (RPMI-8226): 13.3 µM (inactive) | GI50 (M14): 36.8 µM (inactive) | GI50 (CCRF-CEM): 19.1 µM (inactive)

N#C[BH2-][n+]1ccc(C(=O)NNCc2cccc(C(F)(F)F)c2)cc1
GI50 (HCC 2998): 7.11 µM (inactive) | GI50 (SK-MEL-28): 5.5 µM (inactive) | GI50 (MCF7): 5.64 µM (inactive) | GI50 (HT-29): 6.01 µM (inactive) | GI50 (HCT-15): 21.3 µM | GI50 (SF-268): 4.82 µM (inactive) | GI50 (OVCAR-5): 21.2 µM (inactive) | GI50 (ACHN): 33.7 µM (inactive) | GI50 (Hs-578T): 4.59 µM (inactive) | GI50 (NCI-H23): 12.2 µM (inactive) | GI50 (MOLT-4): 17.6 µM (inactive) | GI50 (SF-539): 4.08 µM (inactive) | GI50 (SN12C): 28.8 µM (inactive) | GI50 (UACC-257): 4.92 µM (inactive) | GI50 (A498): 21.6 µM (inactive) | GI50 (SR): 26.9 µM (inactive) | GI50 (NCI-H226): 3.27 µM (inactive) | GI50 (RPMI-8226): 21.4 µM (inactive) | GI50 (M14): 8.75 µM (inactive) | GI50 (CCRF-CEM): 28.4 µM (inactive)

CCCNC1=C2CC(C)CC(OC)[C@@H](O)[C@H](C)/C=C(\C)C(OC(N)=O)C(OC)/C=C\C=C(/C)C(=O)NC(=CC1=O)C2=O (stereo not given in full)
GI50 (HCC 2998): 0.264 µM (active) | GI50 (SK-MEL-28): 0.0627 µM (active) | GI50 (MCF7): 0.124 µM (active) | GI50 (HT-29): 0.0101 µM (active) | GI50 (HCT-15): 0.321 µM | GI50 (SF-268): 0.524 µM (active) | GI50 (OVCAR-5): 0.0311 µM (active) | GI50 (ACHN): 0.502 µM (active) | GI50 (Hs-578T): 3.03 µM (inactive) | GI50 (NCI-H23): 0.0847 µM (active) | GI50 (MOLT-4): 0.332 µM (active) | GI50 (SF-539): 0.698 µM (active) | GI50 (SN12C): 0.0809 µM (active) | GI50 (UACC-257): 0.0975 µM (active) | GI50 (A498): 0.944 µM (active) | GI50 (SR): 0.31 µM (active) | GI50 (NCI-H226): 0.551 µM (active) | GI50 (RPMI-8226): 0.762 µM (active) | GI50 (M14): 0.561 µM (active) | GI50 (CCRF-CEM): 0.273 µM (active)

O=C(NCCCCNCCCNC(=O)c1ccccc1)c1ccccc1
GI50 (HCC 2998): > 100 µM (inactive) | GI50 (SK-MEL-28): > 100 µM (inactive) | GI50 (MCF7): > 100 µM (inactive) | GI50 (HT-29): > 100 µM (inactive) | GI50 (HCT-15): > 100 µM | GI50 (SF-268): > 100 µM (inactive) | GI50 (OVCAR-5): > 100 µM (inactive) | GI50 (ACHN): > 100 µM (inactive) | GI50 (Hs-578T): > 100 µM (inactive) | GI50 (NCI-H23): > 100 µM (inactive) | GI50 (MOLT-4): > 100 µM (inactive) | GI50 (SF-539): > 100 µM (inactive) | GI50 (SN12C): > 100 µM (inactive) | GI50 (UACC-257): > 100 µM (inactive) | GI50 (A498): > 100 µM (inactive) | GI50 (SR): > 100 µM (inactive) | GI50 (NCI-H226): > 100 µM (inactive) | GI50 (RPMI-8226): > 100 µM (inactive) | GI50 (M14): > 100 µM (inactive) | GI50 (CCRF-CEM): > 100 µM (inactive)

From ChEMBL document CHEMBL1201862, “PubChem BioAssay data set” (2004)
